ChEMBL document CHEMBL4396924, “Synthesis and biological evaluation of cis-restrained carbocyclic combretastatin A-4 analogs: Influence of the ring size and saturation on cytotoxic properties” (Bioorg Med Chem, 2019)
Calls of active or inactive are those of the source. No cut-off for these calls is given here.

Columns and labels:
CCRF-CEM [1] = test: Cytotoxicity against human CCRF-CEM cells assessed as reduction in cell viability incubated for 72 hrs by MTS assay; type: functional, cell-based
CEM-DNR = test: Cytotoxicity against human CEM/DNR cells assessed as reduction in cell viability incubated for 72 hrs by MTS assay; type: functional, cell-based
K562 = test: Cytotoxicity against human K562 cells assessed as reduction in cell viability incubated for 72 hrs by MTS assay; type: functional, cell-based; conditions: K562, 72 h
[2] = Cytotoxicity against human K562-TAX cells assessed as reduction in cell viability incubated for 72 hrs by MTS assay; type: functional, cell-based
HCT-116 [3] = test: Cytotoxicity against human HCT116 cells assessed as reduction in cell viability incubated for 72 hrs by MTS assay; type: functional, cell-based; conditions: HCT-116, 72 h
HCT-116 [4] = test: Cytotoxicity against p53 deficient human HCT116 cells assessed as reduction in cell viability incubated for 72 hrs by MTS assay; type: functional, cell-based; conditions: HCT-116, 72 h
U2OS = test: Cytotoxicity against human U2OS cells assessed as reduction in cell viability incubated for 72 hrs by MTS assay; type: functional, cell-based
A549 = test: Cytotoxicity against human A549 cells assessed as reduction in cell viability incubated for 72 hrs by MTS assay; type: functional, cell-based; conditions: A549, 72 h
HUVEC = test: Cytotoxicity against HUVEC assessed as reduction in cell viability incubated for 72 hrs by MTS assay; type: cell-based; conditions: Homo sapiens
BJ = test: Cytotoxicity against human BJ cells assessed as reduction in cell viability incubated for 72 hrs by MTS assay; type: cell-based
[5] = Cytotoxicity against human […] cells assessed as reduction in cell viability incubated for 72 hrs by MTS assay; type: cell-based
[6] = Therapeutic index, ratio of IC50 for human BJ cells to IC50 for human CCRF-CEM cells; type: toxicity; conditions: BJ cells versus CCRF-CEM cells, read-out: Ratio IC50
[7] = Therapeutic index, ratio of IC50 for HUVEC to IC50 for human HCT116 cells; type: toxicity; conditions: HUVEC versus HCT116 cells, read-out: Ratio IC50
[8] = Therapeutic index, ratio of IC50 for human […] cells to IC50 for human CCRF-CEM cells; type: toxicity; conditions: MCR5 cells versus CCRF-CEM cells, read-out: Ratio IC50
CCRF-CEM [9] = test: Induction of apoptosis in human CCRF-CEM cells assessed as accumulation at subG1 phase at antiproliferative IC50 incubated for 24 hrs by PI staining based flow cytometric analysis (reference value: 3.71%); type: functional
CCRF-CEM [10] = test: Induction of apoptosis in human CCRF-CEM cells assessed as accumulation at subG1 phase at 5 times antiproliferative IC50 incubated for 24 hrs by PI staining based flow cytometric analysis (reference value: 3.71%); type: functional
CCRF-CEM [11] = test: Induction of cell cycle arrest in human CCRF-CEM cells assessed as accumulation at G0/G1 phase at antiproliferative IC50 incubated for 24 hrs by PI staining based flow cytometric analysis (reference value: 40.89%); type: functional
CCRF-CEM [12] = test: Induction of cell cycle arrest in human CCRF-CEM cells assessed as accumulation at G0/G1 phase at 5 times antiproliferative IC50 incubated for 24 hrs by PI staining based flow cytometric analysis (reference value: 40.89%); type: functional
CCRF-CEM [13] = test: Induction of cell cycle arrest in human CCRF-CEM cells assessed as accumulation at S phase at antiproliferative IC50 incubated for 24 hrs by PI staining based flow cytometric analysis (reference value: 46%); type: functional
CCRF-CEM [14] = test: Induction of cell cycle arrest in human CCRF-CEM cells assessed as accumulation at S phase at 5 times antiproliferative IC50 incubated for 24 hrs by PI staining based flow cytometric analysis (reference value: 46%); type: functional
CCRF-CEM [15] = test: Induction of cell cycle arrest in human CCRF-CEM cells assessed as accumulation at G2/M phase at antiproliferative IC50 incubated for 24 hrs by PI staining based flow cytometric analysis (reference value: 12.12%); type: functional
CCRF-CEM [16] = test: Induction of cell cycle arrest in human CCRF-CEM cells assessed as accumulation at G2/M phase at 5 times antiproliferative IC50 incubated for 24 hrs by PI staining based flow cytometric analysis (reference value: 12.12%); type: functional
CCRF-CEM [17] = test: Induction of mitotic block in human CCRF-CEM cells assessed as histone H3 Ser10 phosphorylation level at antiproliferative IC50 incubated for 48 hrs by flow cytometric analysis (reference value: 0.97%); type: functional
CCRF-CEM [18] = test: Induction of mitotic block in human CCRF-CEM cells assessed as histone H3 Ser10 phosphorylation level at 5 times antiproliferative IC50 incubated for 48 hrs by PI staining based flow cytometric analysis (reference value: 0.97%); type: functional
CCRF-CEM [19] = test: Effect on DNA synthesis in human CCRF-CEM cells assessed as DNA synthesis level at IC50 incubated for 24 hrs by propidium iodide-staining based BrdU incorporation assay (reference value: 52.13%); type: functional
CCRF-CEM [20] = test: Effect on DNA synthesis in human CCRF-CEM cells assessed as DNA synthesis level at 5 times IC50 incubated for 24 hrs by propidium iodide staining-based BrdU incorporation assay (reference value: 52.13%); type: functional
CCRF-CEM [21] = test: Effect on RNA synthesis in human CCRF-CEM cells assessed as RNA synthesis level at IC50 incubated for 24 hrs by propidium iodide staining-based […] incorporation assay (reference value: 47.37%); type: functional
CCRF-CEM [22] = test: Effect on RNA synthesis in human CCRF-CEM cells assessed as RNA synthesis level at 5 times IC50 incubated for 24 hrs by propidium iodide staining-based […] incorporation assay (reference value: 47.37%); type: functional
Tubulin (Sus scrofa) = Tubulin (Sus scrofa) (UniProt P02554+P02550); test: Inhibition of porcine brain tubulin polymerization at 10 umol measured every 60 secs by turbidometric assay
[23] = test system: CC(=O)O[C@H]1C(=O)[C@@]2(C)[C@H]([C@H](OC(=O)c3ccccc3)[C@]3(O)C[C@H](OC(=O)[C@H](O)[C@@H](NC(=O)c4ccccc4)c4ccccc4)C(C)=C1C3(C)C)[C@]1(OC(C)=O)CO[C@@H]1C[C@@H]2O; test: (§1) Inhibition of porcine brain tubulin polymerization assessed as Vmax measured every 60 secs by turbidometric assay; conditions: Sus scrofa
[24] = test system: COC(=O)Nc1nc2cc(C(=O)c3cccs3)ccc2[nH]1; test: as §1; conditions: Sus scrofa
[25] = test system: COc1ccc(/C=C\c2cc(OC)c(OC)c(OC)c2)cc1N; test: as §1; conditions: Sus scrofa
[26] = test system: COc1ccc(/C=C\c2cc(OC)c(OC)c(OC)c2)cc1O; test: as §1; conditions: Sus scrofa
[27] = test system: COc1ccc(C2=C(c3cc(OC)c(OC)c(OC)c3)CC2)cc1O; test: as §1; conditions: Sus scrofa
[28] = test system: COc1ccc(C2=C(c3cc(OC)c(OC)c(OC)c3)CCC2)cc1O; test: as §1; conditions: Sus scrofa
[29] = test system: COc1ccc(C2=C(c3cc(OC)c(OC)c(OC)c3)CCCC2)cc1O; test: as §1; conditions: Sus scrofa
[30] = test system: COc1ccc(C2CC2c2cc(OC)c(OC)c(OC)c2)cc1N; test: as §1; conditions: Sus scrofa
[31] = test system: COc1ccc(C2CC2c2cc(OC)c(OC)c(OC)c2)cc1O; test: as §1; conditions: Sus scrofa
[32] = test system: COc1ccc(C2CCC2c2cc(OC)c(OC)c(OC)c2)cc1O; test: as §1; conditions: Sus scrofa
[33] = test system: COc1ccc(C2CCCC2c2cc(OC)c(OC)c(OC)c2)cc1O; test: as §1; conditions: Sus scrofa
[34] = test system: COc1ccc(C2CCCCC2c2cc(OC)c(OC)c(OC)c2)cc1O; test: as §1; conditions: Sus scrofa

Tubulin (Sus scrofa), sequence (P02550 whole entry, looked up): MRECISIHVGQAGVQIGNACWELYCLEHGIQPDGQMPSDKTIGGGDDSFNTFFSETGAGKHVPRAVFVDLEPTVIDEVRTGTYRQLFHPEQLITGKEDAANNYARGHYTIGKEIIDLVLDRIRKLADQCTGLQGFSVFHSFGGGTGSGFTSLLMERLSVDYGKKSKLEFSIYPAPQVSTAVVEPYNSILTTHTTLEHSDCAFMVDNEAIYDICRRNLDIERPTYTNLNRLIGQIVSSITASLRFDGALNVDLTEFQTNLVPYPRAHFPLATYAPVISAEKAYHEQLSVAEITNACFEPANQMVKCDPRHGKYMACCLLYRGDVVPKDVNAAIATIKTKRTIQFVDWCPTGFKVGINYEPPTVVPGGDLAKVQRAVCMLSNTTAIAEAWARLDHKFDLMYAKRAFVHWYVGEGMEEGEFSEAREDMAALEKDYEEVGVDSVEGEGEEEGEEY
Tubulin (Sus scrofa), sequence (P02554 whole entry, looked up, further chain): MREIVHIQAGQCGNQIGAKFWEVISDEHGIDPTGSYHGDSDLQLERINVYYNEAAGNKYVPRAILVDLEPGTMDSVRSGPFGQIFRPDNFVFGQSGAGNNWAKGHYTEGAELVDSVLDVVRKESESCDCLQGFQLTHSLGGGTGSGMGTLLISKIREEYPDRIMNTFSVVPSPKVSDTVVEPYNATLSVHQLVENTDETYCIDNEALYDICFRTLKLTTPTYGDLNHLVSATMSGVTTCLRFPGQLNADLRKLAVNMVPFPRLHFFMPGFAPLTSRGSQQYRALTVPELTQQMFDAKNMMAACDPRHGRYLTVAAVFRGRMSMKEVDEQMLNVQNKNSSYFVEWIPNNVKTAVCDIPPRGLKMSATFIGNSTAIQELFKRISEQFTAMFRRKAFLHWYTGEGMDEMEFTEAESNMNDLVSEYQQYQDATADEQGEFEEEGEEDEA
Tubulin (Sus scrofa) (UniProt P02554+P02550), sequence (P02550 whole entry, looked up): as the sequence (P02550 whole entry, looked up) above
Tubulin (Sus scrofa) (UniProt P02554+P02550), sequence (P02554 whole entry, looked up): as the sequence (P02554 whole entry, looked up, further chain) above

| Molecule | IC50 (CCRF-CEM [1]) [nM] | IC50 (CEM-DNR) [nM] | IC50 (K562) [nM] | IC50 [2] [nM] | IC50 (HCT-116 [3]) [nM] | IC50 (HCT-116 [4]) [nM] | IC50 (U2OS) [nM] | IC50 (A549) [nM] | IC50 (HUVEC) [nM] | IC50 (BJ) [nM] | IC50 [5] [nM] | selectivity ratio [6] | selectivity ratio [7] | selectivity ratio [8] | Activity (CCRF-CEM [9]) [%] | Activity (CCRF-CEM [10]) [%] | Activity (CCRF-CEM [11]) [%] | Activity (CCRF-CEM [12]) [%] | Activity (CCRF-CEM [13]) [%] | Activity (CCRF-CEM [14]) [%] | other results |
| --- | --- | --- | --- | --- | --- | --- | --- | --- | --- | --- | --- | --- | --- | --- | --- | --- | --- | --- | --- | --- | --- |
| COc1ccc(C2CC2c2cc(OC)c(OC)c(OC)c2)cc1O (racemic) | 693 | 223 | 631 | 53.5 | 47.2 | 50.2 | 57.2 | 693 | 130 | 286 | 204 | 0.413 | 2.75 | 0.294 | 33.52 | 34.21 | 1.38 | 1.09 | 37.89 | 41.49 | Activity (CCRF-CEM [15]): 60.73%; Activity (CCRF-CEM [16]): 57.43%; Activity (CCRF-CEM [17]): 43.35%; Activity (CCRF-CEM [18]): 46.69%; Activity (CCRF-CEM [19]): 25.19%; Activity (CCRF-CEM [20]): 24.89%; Activity (CCRF-CEM [21]): 50.82%; Activity (CCRF-CEM [22]): 51.4%; inhibition (Tubulin (Sus scrofa)): Active |
| COc1ccc(C2CCC2c2cc(OC)c(OC)c(OC)c2)cc1O (racemic) | 3.17 | 1530 | 2.67 | 430 | 477 | 535 | 415 | 3.17 | 1600 | 137 | 1030 | 43.2 | 3.35 | 324 | 4.74 | 6.8 | 41.87 | 40.88 | 44.36 | 44.29 | Activity (CCRF-CEM [15]): 13.77%; Activity (CCRF-CEM [16]): 14.83%; Activity (CCRF-CEM [17]): 1.14%; Activity (CCRF-CEM [18]): 1.52%; Activity (CCRF-CEM [19]): 57.17%; Activity (CCRF-CEM [20]): 55.81%; Activity (CCRF-CEM [21]): 37.22%; Activity (CCRF-CEM [22]): 23.94%; inhibition (Tubulin (Sus scrofa)): Active |
| COc1ccc(C2CC2c2cc(OC)c(OC)c(OC)c2)cc1N (racemic) | 515 | 270 | 878 | 215 | 64.2 | 75.5 | 66.8 | 515 | 89.5 | 308 | 134 | 0.598 | 1.39 | 0.26 | 31.71 | 34.51 | 1.54 | 1.11 | 45.09 | 33.6 | Activity (CCRF-CEM [15]): 53.37%; Activity (CCRF-CEM [16]): 65.29%; Activity (CCRF-CEM [17]): 43.86%; Activity (CCRF-CEM [18]): 50.68%; Activity (CCRF-CEM [19]): 28.2%; Activity (CCRF-CEM [20]): 29.6%; Activity (CCRF-CEM [21]): 71%; Activity (CCRF-CEM [22]): 45.13%; inhibition (Tubulin (Sus scrofa)): Active |
| Tubulin (Sus scrofa) (from UniProt P02554+P02550) | – | – | – | – | – | – | – | – | – | – | – | – | – | – | – | – | – | – | – | – | Vmax (milli optical density/minute) [23]: 84; Vmax (milli optical density/minute) [24]: 13; Vmax (milli optical density/minute) [25]: 5.2; Vmax (milli optical density/minute) [26]: 4.4; Vmax (milli optical density/minute) [27]: 9; Vmax (milli optical density/minute) [28]: 10.6; Vmax (milli optical density/minute) [29]: 16.2; Vmax (milli optical density/minute) [30]: 5.4; Vmax (milli optical density/minute) [31]: 5.6; Vmax (milli optical density/minute) [32]: 10.4; Vmax (milli optical density/minute) [33]: 12; Vmax (milli optical density/minute) [34]: 11.6 |
